Measured values taken from patent US10456407B2, “Combination therapy for treating cancer” (Epizyme, Inc., priority 2015, dated 2019).

Tested on: WSU-DLCL2 cells
Experiment: RT2 Glucocorticoid signaling PCR array, WSU-DLCL2 (WSU) cell line (Table 4c)
Assay type: cell-based

## CCN(c1cc(-c2ccc(CN3CCOCC3)cc2)cc(C(=O)NCc2c(C)cc(C)[nH]c2=O)c1C)C1CCOCC1 [Compound 44]
Gene MERTK
  Ct Values, MERTK: 31.323
  ΔCT (B2M), MERTK: 11.638
Gene MT2A
  Ct Values, MT2A: 23.499
  ΔCT (B2M), MT2A: 3.814
Gene MT2A, compared to DMSO
  ΔΔCT, MT2A: −1.453
Gene NFKBIA
  Ct Values, NFKBIA: 23.807
  ΔCT (B2M), NFKBIA: 4.122
Gene NFKBIA, compared to DMSO
  ΔΔCT, NFKBIA: 1.201
Gene NR3C1
  Ct Values, NR3C1: 23.121
  ΔCT (B2M), NR3C1: 3.436
Gene NR3C1, compared to DMSO
  ΔΔCT, NR3C1: −0.364
Gene PDCD7
  Ct Values, PDCD7: 24.740
  ΔCT (B2M), PDCD7: 5.055
Gene PDCD7, compared to DMSO
  ΔΔCT, PDCD7: 0.326
Gene PDP1
  Ct Values, PDP1: 25.226
  ΔCT (B2M), PDP1: 5.541
Gene PDP1, compared to DMSO
  ΔΔCT, PDP1: −0.380
Gene PER1
  Ct Values, PER1: 25.820
  ΔCT (B2M), PER1: 6.135
Gene PER1, compared to DMSO
  ΔΔCT, PER1: 0.476
Gene PER2
  Ct Values, PER2: 24.837
  ΔCT (B2M), PER2: 5.152
Gene PER2, compared to DMSO
  ΔΔCT, PER2: 0.151
Gene PIK3R1
  Ct Values, PIK3R1: 24.332
  ΔCT (B2M), PIK3R1: 4.647
Gene PIK3R1, compared to DMSO
  ΔΔCT, PIK3R1: 0.363
Gene PLEKHF1
  Ct Values, PLEKHF1: 28.660
  ΔCT (B2M), PLEKHF1: 8.975
Gene PLEKHF1, compared to DMSO
  ΔΔCT, PLEKHF1: 1.220
Gene POU2F1
  Ct Values, POU2F1: 24.671
  ΔCT (B2M), POU2F1: 4.986
Gene POU2F1, compared to DMSO
  ΔΔCT, POU2F1: 0.202
Gene POU2F2
  Ct Values, POU2F2: 22.678
  ΔCT (B2M), POU2F2: 2.993
Gene POU2F2, compared to DMSO
  ΔΔCT, POU2F2: −0.680
Gene RASA3
  Ct Values, RASA3: 23.208
  ΔCT (B2M), RASA3: 3.523
Gene RASA3, compared to DMSO
  ΔΔCT, RASA3: −0.979
Gene RGS2
  Ct Values, RGS2: 24.869
  ΔCT (B2M), RGS2: 5.184
Gene RGS2, compared to DMSO
  ΔΔCT, RGS2: 1.732
Gene RHO8
  Ct Values, RHO8: 27.234
  ΔCT (B2M), RHO8: 7.549
Gene RHO8, compared to DMSO
  ΔΔCT, RHO8: −2.725
Gene RPLP0
  Ct Values, RPLP0: 15.651
  ΔCT (B2M), RPLP0: −4.004
Gene SESN1
  Ct Values, SESN1: 25.215
  ΔCT (B2M), SESN1: 5.530
Gene SESN1, compared to DMSO
  ΔΔCT, SESN1: −3.709
Gene SGK1
  Ct Values, SGK1: 28.624
  ΔCT (B2M), SGK1: 8.939
Gene SGK1, compared to DMSO
  ΔΔCT, SGK1: 2.810
Gene SLC10A6
  Ct Values, SLC10A6: 35.684
  ΔCT (B2M), SLC10A6: 15.999
Gene SLC10A6, compared to DMSO
  ΔΔCT, SLC10A6: −1.168
Gene SLC19A2
  Ct Values, SLC19A2: 26.125
  ΔCT (B2M), SLC19A2: 6.440
Gene SLC19A2, compared to DMSO
  ΔΔCT, SLC19A2: −0.748
Gene SLC22A5
  Ct Values, SLC22A5: 26.640
  ΔCT (B2M), SLC22A5: 6.995
Gene SLC22A5, compared to DMSO
  ΔΔCT, SLC22A5: −2.496
Gene SNTA1
  Ct Values, SNTA1: 24.181
  ΔCT (B2M), SNTA1: 4.496
Gene SNTA1, compared to DMSO
  ΔΔCT, SNTA1: −0.492
Gene SPHK1
  Ct Values, SPHK1: 29.333
  ΔCT (B2M), SPHK1: 9.648
Gene SPHK1, compared to DMSO
  ΔΔCT, SPHK1: −0.545
Gene SPSB1
  Ct Values, SPSB1: 26.952
  ΔCT (B2M), SPSB1: 7.267
Gene SPSB1, compared to DMSO
  ΔΔCT, SPSB1: −2.896
Gene STAT5A
  Ct Values, STAT5A: 25.495
  ΔCT (B2M), STAT5A: 5.810
Gene STAT5A, compared to DMSO
  ΔΔCT, STAT5A: −0.307
Gene STAT5B
  Ct Values, STAT5B: 23.453
  ΔCT (B2M), STAT5B: 3.768
Gene STAT5B, compared to DMSO
  ΔΔCT, STAT5B: −0.196
Gene TBL1XR1
  Ct Values, TBL1XR1: 22.111
  ΔCT (B2M), TBL1XR1: 2.426
Gene TBL1XR1, compared to DMSO
  ΔΔCT, TBL1XR1: 0.274
Gene TNF
  Ct Values, TNF: 25.079
  ΔCT (B2M), TNF: 5.394
Gene TNF, compared to DMSO
  ΔΔCT, TNF: 1.150
Gene TNFAIP3
  Ct Values, TNFAIP3: 26.903
  ΔCT (B2M), TNFAIP3: 7.218
Gene TNFAIP3, compared to DMSO
  ΔΔCT, TNFAIP3: 1.722
Gene TSC22D3
  Ct Values, TSC22D3: 25.390
  ΔCT (B2M), TSC22D3: 5.705
Gene TSC22D3, compared to DMSO
  ΔΔCT, TSC22D3: −0.359
Gene USP2
  Ct Values, USP2: 21.903
  ΔCT (B2M), USP2: 2.218
Gene USP2, compared to DMSO
  ΔΔCT, USP2: −0.978
Gene USPS4
  Ct Values, USPS4: 26.807
  ΔCT (B2M), USPS4: 7.122
Gene USPS4, compared to DMSO
  ΔΔCT, USPS4: 0.023
Gene VDR
  Ct Values, VDR: 27.293
  ΔCT (B2M), VDR: 7.608
Gene VDR, compared to DMSO
  ΔΔCT, VDR: −3.044
Gene VLDLR
  Ct Values, VLDLR: 32.346
  ΔCT (B2M), VLDLR: 12.661
Gene VLDLR, compared to DMSO
  ΔΔCT, VLDLR: 3.859
Gene ZFP36
  Ct Values, ZFP36: 25.541
  ΔCT (B2M), ZFP36: 5.856
Gene ZFP36, compared to DMSO
  ΔΔCT, ZFP36: 0.939
Gene ZHX3
  Ct Values, ZHX3: 24.831
  ΔCT (B2M), ZHX3: 5.146
Gene ZHX3, compared to DMSO
  ΔΔCT, ZHX3: −1.178
Gene ZNF281
  Ct Values, ZNF281: 23.913
  ΔCT (B2M), ZNF281: 4.228
Gene ZNF281, compared to DMSO
  ΔΔCT, ZNF281: −0.329
